“And” between values parts separate entries of the source, which are not always exact repeats. Equal entries are not always repeated. “Also recorded” adds a separate entry of the source. Marks after values point to notes of the source that are not given here.
Key:
ALP = type: in vivo; settings: 1000 mg/kg; 6 hr after administration, vs basal value; mean ± SEM
Description: (§1) Biochemical Assays (Table 3 and FIG. 2 Sheet No. 1 for SGPT(ALT), and Table 4 and FIG. 3 Sheet No. 2 for ALP): Paracetamol was given at a dose of 1000 mg/Kg and an equivalent dose of 1000 mg/Kg of the derivatives 12 and 13 was given p.o. Before administration blood samples of each animal were taken and after 6 hrs the animals were sacrificed to collect blood samples, and the serum was separated out. Measurement of plasma markers of liver Serum Glutamate oxaloacetate transaminase (SGOT) pyruvate transaminase (SGPT) and Alkaline Phosphatase (ALP) were assayed spectrophotometrically using commercially available kits.
(§2) The animals were divided into different groups containing 6-8 animals in each group. Animals were lightly anaesthetized with diethyl ether and blood samples were collected which served as the basal reading of the enzyme to be analyzed. These groups of rats were then treated with paracetamol (1000 mg/Kg, i.p.), and equivalent dose of the test compounds. Control group was treated with an equal volume of vehicle (0.9% w/v sodium chloride containing 20% v/v tween-80). Animals were lightly anesthetized with ethyl ether and blood samples were collected and allowed to coagulate at room temperature for 1 hr, serum was then separated by centrifugation (5,000 rpm for 10 min) at 4° C. and stored at −40.0° C. till estimation. Plasma markers of liver injury were assayed spectrophotometrically using following commercially available kits according to standard laboratory techniques:
(§3) […]. Enzymes like alkaline phosphatase (ALP, EC 3.1.3.1), serum glutamate pyruvate transaminase (SGPT) or alanine aminotransferase (ALT) ([…]) and the total proteins are considered as plasma markers of liver injury. Nitric oxide releasing paracetamol derivatives 12 and 13 were evaluated for their effect on the markers of liver injury like enzymes ALP and SGPT/ALT. The plasma level of these enzymes is found to increase in the case of liver toxicity.

[1] = system: carrageenan induced rat paw edema; assay: carrageenan induced rat paw edema model (anti-inflammatory activity); type: in vivo, Wistar rats; settings: 100 mg/kg p.o.; for % Increase in paw volume Mean ± SEM 2 hr: 2 hr after carrageenan challenge; for anti-inflammatory activity (in words): 2 hr and 4 hr; for % Increase in paw volume Mean ± SEM 4 hr: 4 hr after carrageenan challenge
Source text: Animals: Wistar rats (male 150-200 g) of both sex and Laca mice (male, 25-35 g) procured from Central Animal House, Punjab University, Chandigarh, India were used. Animals were housed under standard laboratory conditions and maintained on rat chow, Animals were allowed free access to food and water until used and fasted 24 hr prior to studies.
Experimental conditions: Unless otherwise stated, the following conditions were employed in all experiments. The test compounds were suspended in 0.5% carboxymethylcellulose (CMC) and administered per orally (p.o.). Control animals were given the corresponding amount of vehicle (0.5%, CMC).
Anti-inflammatory activity (Table 1): Anti-inflammatory activity was determined by using carrageenan induced rat paw edema model. Rats were divided into different groups and the drugs were administered to each group.
Paw edema in rats (various modifications and various irritants) is the most widely used method for testing acute and subacute inflammation. It is based upon the ability of anti-inflammatory agents to inhibit the edema produced in the hind paw of the rat after injection of a phlogistic agent. Many phlogistic agents (irritants) have been used, such as brewer's yeast, formaldehyde, dextran, egg albumin, kaolin, sulfated polysaccharides like carrageenin or naphthoylheparamine. The volume of the injected paw is measured before and after application of the irritant and the paw volume of the treated animals is compared to the control. The details of the experiment carried out are described below:
The paracetamol (1) and synthesized NO-releasing derivatives (12 and 13) were administered p.o. at a dose of 100 mg/kg, p.o., emulsified in 0.5% sodium carboxy methyl cellulose (0.5% sodium CMC). Anti-inflammatory activity was determined by using carrageenan induced rat paw edema model. Rats were divided into different groups and the drugs/derivatives were administered to each group. Acute edema was induced in left hind paw of rats by injecting freshly prepared solution of carrageenan (Type IV, 0.1 ml, 1%) under plantar region of left hind paw. In the right paw, saline ([…], 0.9%) was injected, which served as control for comparison. The increase in paw volume was measured by using plethysmometer (water displacement, UGO BASILE, Varese, Italy) at 2 hr and 4 hr after carrageenan challenge. Percentage change (increase) in paw volume was calculated and expressed as the amount of inflammation. % increase in paw volume at any time=(V1−Vr)/Vr×100
Where, V1 Volume of left paw • Vr=Volume of right paw (control)

liver = liver histopathology (haematoxylin and eosin); type: in vivo, mouse; settings: 1000 mg/kg, i.p.; H&E stain
Source text: Histopathology (FIG. 5 Sheet No. 3) For liver histopathology, the livers were removed and portions were fixed in 10% buffered formalin (pH 7.4). They were then processed by standard histopathological techniques, stained with Haematoxylin and Eosin (H&E), and examined for morphologic evaluation for liver injury.^21

SGPT/ALT = assay: plasma marker of liver injury SGPT/ALT, spectrophotometric kit; type: in vivo; settings: 1000 mg/kg, 6 hr after administration, vs basal value, mean ± SEM
Description: as §1, §2, §3

[2] = system: acetic acid induced writhing; assay: acetic acid induced writhing assay (analgesic activity); type: in vivo, Laca mice; settings: 100 mg/kg p.o., 30 min prior to i.p. acetic acid, mean ± SEM
Description: Animals: Wistar rats (male 150-200 g) of both sex and Laca mice (male, 25-35 g) procured from Central Animal House, Punjab University, Chandigarh, India were used. Animals were housed under standard laboratory conditions and maintained on rat chow, Animals were allowed free access to food and water until used and fasted 24 hr prior to studies. Analgesic activity (Table 2 and FIG. 1 Sheet No. 1 FIG. 3): Analgesic activity was determined by using abdominal writhing assay. Mice were divided into different groups containing 6 animals in each group. Pain can be induced by injection of irritants into the peritoneal cavity of mice. The animals react with a characteristic stretching behaviour which is called writhing. An irritating agent such as phenylquinone or acetic acid can be injected intraperitoneally to mice and the stretching reaction is evaluated. The most commonly used methods for measuring peripheral analgesic activity are the writhing tests in mice. The details of the experiment carried out are mentioned below: Analgesic activity was determined against acetic acid induced writhing assay. Writhing was induced by intraperitoneal (i.p.) injection of freshly prepared acetic acid solution. Mice were per orally (p.o.) administered paracetamol (1) and synthesized NO-releasing derivatives (12 and 13) at a dose of 100 mg/kg, emulsified in 0.5% sodium carboxy methyl cellulose (sodium CMC) vehicle, 30 min prior to i.p. acetic acid (1% w/v in saline pH 2.7, 10 ml/kg, i.p.). Animals were immediately transferred to individual observation chambers and number of writhes (constriction of abdomen, turning of trunk, and extension of hind Limbs) were monitored over the following 20 minutes, beginning 3 min after the injection of acetic acid. At the end of observation period the animals were killed by cervical dislocation and exsaguination. The average number of writhes in each group of drug treated mice was compared with that of the control group and degree of analgesia was expressed as % inhibition calculated from the equation: % Inhibition=(1−Nt/Nc)×100 Where, Nc=number of writhes in control • Nt=number of writhes in drug treated mice

cox-2 (ovine) = biological target: T1, cox-2 (ovine) (Ovis aries, UniProt P79208); assay: In vitro cox-2 (ovine) inhibitory assay; type: biochemical; settings: prostaglandin quantified by EIA, concentration not given
T1 construct: purchased Cayman Chemical Company, USA
T1 sequence (P79208 17-603): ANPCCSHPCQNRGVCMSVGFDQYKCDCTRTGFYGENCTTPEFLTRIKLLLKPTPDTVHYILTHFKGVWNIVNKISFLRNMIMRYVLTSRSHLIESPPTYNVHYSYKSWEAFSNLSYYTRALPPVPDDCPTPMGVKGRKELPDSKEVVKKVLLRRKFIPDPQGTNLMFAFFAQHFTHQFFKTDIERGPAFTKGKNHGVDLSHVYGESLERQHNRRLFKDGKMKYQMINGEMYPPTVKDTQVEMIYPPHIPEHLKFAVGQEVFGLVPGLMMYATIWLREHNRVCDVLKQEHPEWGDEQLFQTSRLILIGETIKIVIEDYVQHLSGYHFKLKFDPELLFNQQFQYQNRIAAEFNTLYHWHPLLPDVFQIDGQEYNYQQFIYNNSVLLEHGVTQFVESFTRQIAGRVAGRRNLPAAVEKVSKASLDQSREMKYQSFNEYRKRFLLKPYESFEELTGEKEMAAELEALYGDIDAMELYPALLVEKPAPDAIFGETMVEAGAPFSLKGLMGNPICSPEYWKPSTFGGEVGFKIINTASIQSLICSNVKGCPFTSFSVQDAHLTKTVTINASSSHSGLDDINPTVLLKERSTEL
Source text: In vitro cox-2 (ovine) inhibitory assay: The prostaglandin product is quantified via enzyme immunoassay (EIA) using a broadly specific antibody that binds to all major prostaglandin compounds. Assay kit was purchased from Cayman Chemical Company, USA.

[3] = in vivo nitric oxide release, serum nitrate/nitrite by Cayman kit; settings: for NO serum level: dose of 100 mg/kg body weight, control 182.1±0.68, in µmol/L; for serum nitrate/nitrite concentration: 6 hours after 100 mg/Kg p.o., control 182.1 ± 0.68
Description: 100 mg/Kg of the derivatives 12 and 13 was given p.o. After 6 hours the animals were sacrificed to collect blood samples and the serum was separated out to find out the levels of NO. Plasma nitrate/nitrite concentration level was measured by commercially available Cayman Kit.

SMILES | % INCREASE IN ALP LEVEL (ALP) | % Increase in paw volume Mean ± SEM 2 hr [1] | % Increase in paw volume Mean ± SEM 2 hr ([1]; listed as paracetamol) | % Increase in paw volume Mean ± SEM 2 hr ([1]; listed as paracetamol (1)) | anti-inflammatory activity (in words) [1] | % Increase in paw volume Mean ± SEM 4 hr [1] | % Increase in paw volume Mean ± SEM 4 hr ([1]; listed as paracetamol) | % Increase in paw volume Mean ± SEM 4 hr ([1]; listed as paracetamol (1)) | liver damage in histopathology (light microscopy) (liver) | % INCREASE IN SGPT/ALT LEVEL (SGPT/ALT; listed as Paracetamol (1)) | % INCREASE IN SGPT/ALT LEVEL (SGPT/ALT; listed as paracetamol (1)) | % INHIBITION IN WRITHINGS [2] | % INHIBITION IN WRITHINGS ([2]; listed as paracetamol (1)) | cox-2 (ovine) inhibition (cox-2 (ovine)) | NO serum level [3] | serum nitrate/nitrite concentration [3] | % INCREASE IN SGPT/ALT LEVEL (SGPT/ALT) | melting point
CC(=O)Nc1ccc(O)cc1 [Compound 1, N-(4-hydroxyphenyl)-acetamide, reference compound] | 15.75 ± 1.07 % | 38.37 ± 1.26% | 38.37±1.26% | 38.37±1.26% | No significant activity | 58.92 ± 1.56% | 58.92±1.56% | 58.92±1.56% | ballooning degeneration, sinusoidal decongestion, portal triad inflammation and spoty necrosis in Zone I | 83.11 ± 3.3 % | more than 80% | 45.36 ± 1.34% | 45.36±1.34% | 24.0% |  |  |  | 
CC(=O)Nc1ccc(OCCCCCO[N+](=O)[O-])cc1 [Compound 13, N-[4-(5-Nitrooxy-pentoxy)-phenyl]-acetamide] | 2.85 ± 0.83 % | 31.15±1.31% |  |  |  | 28.45±1.28% |  |  | didn't cause any significant damage to the liver; also recorded: no significant damage |  |  | 61.80±1.69% |  | 32.5% | 265.4±2.47 | 265.4 ± 2.47 µmol/L | 11.72 ± 1.4*^,# % | 
CC(=O)Nc1ccc(OCCCCO[N+](=O)[O-])cc1 [Compound 19, N-[4-(4-Nitrooxy-butoxy)-phenyl]-acetamide] |  |  |  |  |  |  |  |  |  |  |  |  |  |  |  |  |  | 92 to 98 °C
CC(=O)Nc1ccc(OCCO[N+](=O)[O-])cc1 [Compound 12, N-[4-(2-Nitrooxy-ethoxy)-phenyl]-acetamide] | 4.17 ± 0.62 % | 32.68±1.45% |  |  | good anti-inflammatory activity | 26.44±0.10% and 26.44 ± .10% |  |  | Mild ballooning degeneration |  |  | 58.35±1.50% |  | 21.0% | 354.2±2.17 | 354.2 ± 2.17 µmol/L | 27.94 ± 2.7*^,# % | 

Source: patent publication US8207222B2, “Nitric oxide releasing derivatives of paracetamol” (Council of Scientific and Industrial Research, priority 2007, dated 2012)
